In patent US20080299598A1, “Detector Comprising a Membrane Perturbation - Detecting Polymer and Functional Membrane Fragments” (priority 2004, published 2008):

How the values were obtained:
[1] = system: plasma membrane fragments obtained from PC12 cells; assay: Chromatic response (% CR) of the polydiacetylene construct made with plasma membrane fragments from PC12 cells (detects membrane-permeating drugs); assay type: in vitro ADME; conditions: analyte up to 11 μM; 25 mM Tris base pH 8; FIG. 2
Description: FIG. 2 illustrates the detection of a drug molecule capable of permeating cellular membrane using the construct of the invention (comprising plasma membrane fragments obtained from PC12 cells and polydiacetylene).
(§1) 20 μl of 10,12-tricosadionic acid taken from a stock solution in 60 mM chloroform/ethanol (1:1) are dried in vacuo up to constant weight. The dried material is then resuspended in 1.950 ml deionized water and subjected to probe sonication at 70° C. for 3 minutes. The solution thus obtained is then cooled for 15 minutes, and 50 μl of plasma membrane from PC12 cells (prepared as described hereinabove) is added thereto. The vesicle suspension obtained thereby is then subject to another round of sonication for 10 seconds, left to cool to room temperature and than stored at 4° C. overnight.
Aqueous stock solutions containing 5.2 mg/ml propranolol and 1.5 mg/ml amoxicillin were prepared. […]
FIG. 2 depicts the chromatic response factor calculated for various Propranol- or Amoxicillin-containing samples on the basis of the UV-vis spectra measured, versus the concentration of the analyte (that is, either Propranol or Amoxicillin) in said samples. […]

muscarinic receptor = assay: Chromatic response (% CR) of the polydiacetylene construct made with crude membrane fragments from PC12 cells overexpressing the muscarinic receptor; assay type: binding; conditions: atropine up to 20 μM; 25 mM Tris base pH 8; compared with construct from regular PC12 crude membrane; FIG. 1
Description: PC12 cells overexpressing the muscarinic receptors were prepared using conventional transfection techniques, as described, for example, by Sadot et al. [Israel Journal of neurochemistry (1996 February), 66(2), 877-80.]
as §1, with “crude” for “plasma”, “hereinabove and containing 10 mg/ml protein)” for “hereinabove)”
An aqueous stock solution containing Atropine at a concentration of 0.55 mg/ml was prepared. […]
The UV-vis spectroscopic measurements were carried out three times for each of the samples prepared, using a Jena Analytical Elisa-reader using 96 well microplates. The blue-to-red chromatic transitions were quantified using the chromatic response factor, as defined below:
where Ablue and Ared are the absorbance measured at about 640 nm and about 500 nm, respectively. […]

chromatic change (% CR) [1]	SMILES	chromatic transition (% CR) (muscarinic receptor)
very low % CR	CC1(C)S[C@@H]2[C@H](NC(=O)[C@H](N)c3ccc(O)cc3)C(=O)N2[C@H]1C(=O)O [Amoxicillin]	
	CN1[C@@H]2CC[C@H]1C[C@@H](OC(=O)C(CO)c1ccccc1)C2 (stereo partly drawn) [atropine, Atropine]	high % CR
high % CR	CC(C)NCC(O)COc1cccc2ccccc12 (stereo not drawn) [propranolol]	
